Assay results taken from patent publication US20030155090A1, “Process for controlling microbial growth” (priority 2000, published 2003).

Experiments:
Strain 1 = experiment: Survival of isolated bacteria in nutrient broth under a CO2 atmosphere at 45° C., colony count on agar plates; type: cell-based
Method: (§1) A set of representative bacterial strains was isolated from a white water sample from a Swedish recycled pulp mill. The sample originally yielded 70 bacterial strains which each represented a group of different bacteria, which grew under similar conditions. The strains were tested on different media and their oxygen demands were studied. The results gave an indication of eight main groups. […] Those three groups were put together to one large group.
(§2) From this dominating group, one strain was chosen for the carbon dioxide experiments. Two other strains from another recycled pulp mill were included in the experiments.
(§3) Glass bottles were tempered to 45° C. and CO2 was added to create a carbon dioxide atmosphere. Bacteria from the three isolated strains were added to separate bottles together with a nutrient broth. A first sample representing “0 min” was taken out immediately from each bottle and then at a number of occasions during the next three hours. Each sample was diluted in dilution series with dilution 1/10 in six steps (10^1-10^6) and grown on agar plates. The plates were incubated at 45° C. for two days, after which the number of colonies were counted and related to the dilution.

Strain 2 = experiment: as above; type: cell-based
Method: as §1, §2, §3

Strain 3 = experiment: as above; type: cell-based
Method: as §1, §2, §3

three isolated strains = experiment: Survival under a CO2 atmosphere, average of the three isolated strains; type: cell-based, bacteria; conditions: for percentage of surviving cells, Average: 45° C.
Method: as §1, §2, §3

[1] = system: microbial activity during storage; experiment: Full-scale mill trial, carbon dioxide introduced just prior to the pulp storage tower; conditions: 1-2 kg CO2/ton pulp just prior to the storage tower, chemical pulp
Method: A mill produced wood-free paper from chemical pulp. At the time of the trials, the mill stored pulp for long periods of time in storage towers prior to the stock preparation. The storage caused problems with bad smell and black spots in the pulp, which was believed to be caused by high microbial activity during storage.
A full-scale trial of treatment with a gaseous inhibitor was performed. Thus, carbon dioxide gas was introduced in an amount of 1-2 kg CO2/ton pulp just prior to the storage tower.

O=C=O [CO2, carbon dioxide]
percentage of surviving cells (Strain 1; Strain 1, 0 min): 100% | percentage of surviving cells (Strain 1; Strain 1, 10 min): 75% | percentage of surviving cells (Strain 1; Strain 1, 20 min): 34% | percentage of surviving cells (Strain 1; Strain 1, 30 min): 73% | percentage of surviving cells (Strain 1; Strain 1, 40 min): 50% | percentage of surviving cells (Strain 1; Strain 1, 50 min): 61% | percentage of surviving cells (Strain 1; Strain 1, 60 min): 59% | percentage of surviving cells (Strain 1; Strain 1, 80 min): 39% | percentage of surviving cells (Strain 1; Strain 1, 100 min): 16% | percentage of surviving cells (Strain 1; Strain 1, 120 min): 18% | percentage of surviving cells (Strain 1; Strain 1, 140 min): 5% | percentage of surviving cells (Strain 1; Strain 1, 160 min): 4% | percentage of surviving cells (Strain 1; Strain 1, 180 min): 9% | percentage of surviving cells (Strain 2; Strain 2, 0 min): 100% | percentage of surviving cells (Strain 2; Strain 2, 10 min): 141% | percentage of surviving cells (Strain 2; Strain 2, 20 min): 76% | percentage of surviving cells (Strain 2; Strain 2, 30 min): 137% | percentage of surviving cells (Strain 2; Strain 2, 40 min): 48% | percentage of surviving cells (Strain 2; Strain 2, 50 min): 94% | percentage of surviving cells (Strain 2; Strain 2, 60 min): 46% | percentage of surviving cells (Strain 2; Strain 2, 80 min): 88% | percentage of surviving cells (Strain 2; Strain 2, 100 min): 55% | percentage of surviving cells (Strain 2; Strain 2, 120 min): 43% | percentage of surviving cells (Strain 2; Strain 2, 140 min): 35% | percentage of surviving cells (Strain 2; Strain 2, 160 min): 41% | percentage of surviving cells (Strain 2; Strain 2, 180 min): 24% | percentage of surviving cells (Strain 3; Strain 3, 0 min): 100% | percentage of surviving cells (Strain 3; Strain 3, 10 min): 92% | percentage of surviving cells (Strain 3; Strain 3, 20 min): 77% | percentage of surviving cells (Strain 3; Strain 3, 30 min): 58% | percentage of surviving cells (Strain 3; Strain 3, 40 min): 47% | percentage of surviving cells (Strain 3; Strain 3, 50 min): 36% | percentage of surviving cells (Strain 3; Strain 3, 60 min): 67% | percentage of surviving cells (Strain 3; Strain 3, 80 min): 44% | percentage of surviving cells (Strain 3; Strain 3, 100 min): 42% | percentage of surviving cells (Strain 3; Strain 3, 120 min): 16% | percentage of surviving cells (Strain 3; Strain 3, 140 min): 7% | percentage of surviving cells (Strain 3; Strain 3, 160 min): 4% | percentage of surviving cells (Strain 3; Strain 3, 180 min): 2% | percentage of surviving cells, Average (three isolated strains; Average of Strains 1-3, 0 min): 100% | percentage of surviving cells, Average (three isolated strains; Average of Strains 1-3, 10 min): 103% | percentage of surviving cells, Average (three isolated strains; Average of Strains 1-3, 20 min): 62% | percentage of surviving cells, Average (three isolated strains; Average of Strains 1-3, 30 min): 89% | percentage of surviving cells, Average (three isolated strains; Average of Strains 1-3, 40 min): 48% | percentage of surviving cells, Average (three isolated strains; Average of Strains 1-3, 50 min): 64% | percentage of surviving cells, Average (three isolated strains; Average of Strains 1-3, 60 min): 57% | percentage of surviving cells, Average (three isolated strains; Average of Strains 1-3, 80 min): 57% | percentage of surviving cells, Average (three isolated strains; Average of Strains 1-3, 100 min): 38% | percentage of surviving cells, Average (three isolated strains; Average of Strains 1-3, 120 min): 47% | percentage of surviving cells, Average (three isolated strains; Average of Strains 1-3, 140 min): 16% | percentage of surviving cells, Average (three isolated strains; Average of Strains 1-3, 160 min): 16% | percentage of surviving cells, Average (three isolated strains; Average of Strains 1-3, 180 min): 12% | bacteria survived (three isolated strains; after 2 hours): about 50% | bacteria survived (three isolated strains; after 3 hours): more than 10% | bacteria survived (three isolated strains; after approximately 1 hour): about 60% | number of black spots in the pulp [1]: reduced | pulp's smell [1]: reduced
